Data on two compounds can be found in ChEMBL document CHEMBL3525929, “Paraoxonase 1 as a major bioactivating hydrolase for olmesartan medoxomil in human blood circulation: molecular identification and contribution to plasma metabolism” (Drug Metab Dispos, 2012).

For data set [1], the system named is Plasma. Description: Prodrug conversion in human plasma assessed as hydrolysis by single-enzyme Michaelis-Menten model. The class given is ADME, cell-free.
A short description of data set [2]: Prodrug conversion in recombinant human PON1 192RR mutant expressed in FreeStyle 293-F cells assessed as hydrolysis measured per mg of protein at 10 uM in presence of Mg2+. The class given is ADME, cell-based.
In data set [3] the target is T1, Albumin (Homo sapiens, UniProt P02768). The data set can be described thus: Prodrug conversion in human serum albumin assessed as hydrolysis measured per mg of protein at 10 uM in presence of Zn2+. Format: ADME.
Data set [4] in a line: Prodrug conversion in human serum LPDS assessed as distribution of hydrolyzing activity measured per ml of serum at 10 uM in presence of KPB. The class given is ADME, cell-free.
Data set [5] is described as follows: Prodrug conversion in recombinant human PON1 192QQ mutant expressed in FreeStyle 293-F cells assessed as hydrolysis measured per mg of protein at 10 uM in presence of Ca2+. Format: ADME, cell-based.
The nature of data set [6]: Prodrug conversion in human serum LPDS assessed as conversion velocity per mg of protein at 10 uM in presence of KPB. The class given is ADME, cell-free.
A short description of data set [7]: Prodrug conversion in human serum LPDS assessed as conversion velocity per mg of protein at 10 uM in presence of Tris-HCl/Ca2+. Format: ADME, cell-free.
Data set [8] is described as follows: Prodrug conversion in recombinant human PON1 192QQ mutant expressed in FreeStyle 293-F cells assessed as hydrolysis measured per mg of protein at 10 uM in presence of Mg2+. The class given is ADME, cell-based.
In data set [9] the test system is Plasma. The data set can be described thus: Prodrug conversion in human plasma assessed as hydrolysis in presence of 4 fold anti-PON1 IgG/plasma ratio. The class given is ADME.
Data set [10] can be described thus: Prodrug conversion in human serum HDL assessed as distribution of hydrolyzing activity measured per ml of serum at 10 uM in presence of Tris-HCl/Ca2+. Format: ADME, cell-free.
Data set [11] is described as follows: Prodrug conversion in human serum LDL assessed as conversion velocity at 10 uM measured per mg of protein in presence of Tris-HCl/Ca2+. The class given is ADME, cell-free.
The target in data set [12] is T1, Albumin. The data set can be described thus: Ratio of Vmax to Km in human serum albumin assessed as hydrolysis measured per mg of protein by single-enzyme Michaelis-Menten model. Format: ADME.
A short description of data set [13]: Prodrug conversion in human serum LPDS assessed as distribution of hydrolyzing activity measured per ml of serum at 10 uM in presence of Tris-HCl/Ca2+. Format: ADME, cell-free.
Data set [14] in a line: Prodrug conversion in human serum VLDL and chylomicron assessed as distribution of hydrolyzing activity measured per ml of serum at 10 uM in presence of Tris-HCl/Ca2+. The class given is ADME, cell-free.
Data set [15] can be described thus: Prodrug conversion in recombinant human PON1 192QQ mutant expressed in FreeStyle 293-F cells assessed as hydrolysis by single-enzyme Michaelis-Menten model. The class given is ADME, cell-based.
Data set [16] can be described thus: Prodrug conversion in human serum LDL assessed as distribution of hydrolyzing activity measured per ml of serum at 10 uM in presence of Tris-HCl/Ca2+. Format: ADME, cell-free.
The nature of data set [17]: Prodrug conversion in recombinant human PON1 192RR mutant expressed in FreeStyle 293-F cells measured per mg of protein by single-enzyme Michaelis-Menten model. The class given is ADME, cell-based.
Data set [18] is described as follows: Prodrug conversion in human serum VLDL and chylomicron assessed as conversion velocity at 10 uM measured per mg of protein in presence of Tris-HCl/Ca2+. Format: ADME, cell-free.
Data set [19] in a line: Prodrug conversion in recombinant human PON1 192QQ mutant expressed in FreeStyle 293-F cells measured per mg of protein by single-enzyme Michaelis-Menten model. Format: ADME, cell-based.
The nature of data set [20]: Prodrug conversion in recombinant human PON1 192QQ mutant expressed in FreeStyle 293-F cells assessed as hydrolysis measured per mg of protein at 10 uM in presence of Zn2+. The class given is ADME, cell-based.
Data set [21] can be described thus: Prodrug conversion in human serum HDL assessed as conversion velocity per mg of protein at 10 uM in presence of Tris-HCl/Ca2+. Format: ADME, cell-free.
Data set [22] can be described thus: Ratio of Vmax to Km in recombinant human PON1 192RR mutant expressed in FreeStyle 293-F cells assessed as hydrolysis measured per mg of protein by single-enzyme Michaelis-Menten model. Format: ADME, cell-based.
Data set [23] is described as follows: Prodrug conversion in recombinant human PON1 192RR mutant expressed in FreeStyle 293-F cells assessed as hydrolysis measured per mg of protein at 10 uM in presence of Zn2+. Format: ADME, cell-based.
Data set [24] concerns Plasma. The data set can be described thus: Prodrug conversion in human plasma assessed as hydrolysis measured per mg of protein at 10 uM in presence of Ca2+. The class given is ADME, cell-free.
The target of data set [25] is T1, Albumin. Description: Prodrug conversion in human serum albumin assessed as hydrolysis measured per mg of protein at 10 uM in presence of Ca2+. The class given is ADME.
Data set [26] has as its target T1, Albumin. The data set can be described thus: Prodrug conversion in human serum albumin assessed as hydrolysis measured per mg of protein at 10 uM in presence of Mg2+. The class given is ADME.
Data set [27] has as its system Plasma. Description: Ratio of Vmax to Km in human plasma assessed as hydrolysis measured per mg of protein by single-enzyme Michaelis-Menten model. Format: ADME.
A short description of data set [28]: Prodrug conversion in recombinant human PON1 192RR mutant expressed in FreeStyle 293-F cells assessed as hydrolysis measured per mg of protein at 10 uM in presence of Ca2+. Format: ADME, cell-based.
A short description of data set [29]: Ratio of Vmax to Km in recombinant human PON1 192QQ mutant expressed in FreeStyle 293-F cells assessed as hydrolysis measured per mg of protein by single-enzyme Michaelis-Menten model. Format: ADME, cell-based.
The test system of data set [30] is Plasma. The data set can be described thus: Prodrug conversion in human plasma assessed as hydrolysis measured per mg of protein by single-enzyme Michaelis-Menten model. Format: ADME, cell-free.
Data set [31] in a line: Prodrug conversion in recombinant human PON1 192RR mutant expressed in FreeStyle 293-F cells assessed as hydrolysis by single-enzyme Michaelis-Menten model. Format: ADME, cell-based.
Data set [32] concerns Plasma. The data set can be described thus: Prodrug conversion in human plasma assessed as hydrolysis measured per mg of protein at 10 uM in presence of Zn2+. The class given is ADME, cell-free.
Data set [33] has as its system Plasma. The data set can be described thus: Prodrug conversion in human plasma assessed as hydrolysis measured per mg of protein at 10 uM in presence of Mg2+. Format: ADME, cell-free.
The subject of data set [34] is CCCc1nc(C(C)(C)O)c(C(=O)OCc2oc(=O)oc2C)n1Cc1ccc(-c2ccccc2-c2nnn[nH]2)cc1. The data set can be described thus: Prodrug conversion in human serum albumin assessed as hydrolysis by single-enzyme Michaelis-Menten model. Format: ADME.

T1 sequence (P02768 whole entry): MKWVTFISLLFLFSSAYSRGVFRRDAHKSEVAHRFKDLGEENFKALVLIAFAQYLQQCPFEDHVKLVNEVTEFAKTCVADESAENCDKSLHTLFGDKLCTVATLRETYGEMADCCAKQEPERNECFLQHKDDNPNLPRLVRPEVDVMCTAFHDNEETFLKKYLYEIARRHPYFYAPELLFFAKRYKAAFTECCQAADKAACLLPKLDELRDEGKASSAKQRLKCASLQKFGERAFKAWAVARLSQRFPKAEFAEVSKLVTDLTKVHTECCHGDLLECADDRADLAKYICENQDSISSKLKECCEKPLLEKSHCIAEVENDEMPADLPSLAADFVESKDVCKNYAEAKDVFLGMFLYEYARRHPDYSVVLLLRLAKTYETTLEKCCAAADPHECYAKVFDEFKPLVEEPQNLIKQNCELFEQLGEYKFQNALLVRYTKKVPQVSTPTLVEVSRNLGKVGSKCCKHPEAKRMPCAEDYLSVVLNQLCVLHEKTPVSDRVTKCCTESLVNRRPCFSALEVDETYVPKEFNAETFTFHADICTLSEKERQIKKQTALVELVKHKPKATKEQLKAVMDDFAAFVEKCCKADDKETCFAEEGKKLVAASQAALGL

`CCCc1nc(C(C)(C)O)c(C(=O)OCc2oc(=O)oc2C)n1Cc1ccc(-c2ccccc2-c2nnn[nH]2)cc1` [OLMESARTAN MEDOXOMIL]: the Km (in general, the substrate concentration at which the rate is half of its maximum) with Plasma [1] worked out at 6.71 µM; in [15], 157 µM; in data set [31], 102 µM. Moreover, the Activity turned out to be 2.25 nmol/min in [2]; 0.0164 nmol/min on Albumin [3]; 9.04 nmol/min in data set [4]; 9.5 nmol/min in data set [5]; 0.131 nmol/min in [6]; 0.516 nmol/min in data set [7]. In addition, the Activity worked out at 0.65 nmol/min in data set [8]; 596 nmol/min in data set [10]; 12.6 nmol/min in data set [11]; 35.6 nmol/min in data set [13]; 2.42 nmol/min in [14]; 4.07 nmol/min in data set [16]. Besides, the Activity was 13.9 nmol/min in data set [18]; 0.75 nmol/min in data set [20]; 277 nmol/min in [21]; 1.75 nmol/min in data set [23]; 7.91 nmol/min in the data set with Plasma [24]; 0.0102 nmol/min at Albumin [25]. The Activity at Albumin [26] is on record as 0.0106 nmol/min; in data set [28], 20.6 nmol/min; in the data set with Plasma [32], 0.0918 nmol/min; with Plasma [33], 0.266 nmol/min. Further, in the data set on Plasma [9], the Drug metabolism entry is “metabolite_not_detected”. For the same compound, the Vmax/Km on Albumin [12] came out at 0.00737 mL/min; in data set [22], 1.37 mL/min; in the data set on Plasma [27], 2.77 mL/min; in data set [29], 0.79 mL/min. Moreover, the Vmax – broadly, the rate approached at saturating substrate – in [17] stood at 140 nmol/min; in [19], 124 nmol/min; with Plasma [30] it was 18.6 nmol/min.
Regarding Albumin (Homo sapiens), in data set [34], the Michaelis-Menten constant (Km) turned out to be 354 µM and the Vmax amounted to 0.00261 µmol/min.
